Laboratory results: the OligoGym collection
Oligonucleotides are written 5' to 3', each unit as a sugar letter and its base; * is a phosphorothioate linkage, no mark a phosphodiester; rarer units and linkages stand in square brackets, end groups in braces. Plain capitals give the bases only. d = 2'-deoxy (DNA); r = 2'-OH (RNA)
Note: test concentration or dose not given here.

The substances below were run against UBE2H (assay: reporter assay of Huesken 2005). Conditions: siRNA.
With “sense rArArArArUrUrArArArGrArGrUrArCrArUrCrCdTdT / antisense rGrGrArUrGrUrArCrUrCrUrUrUrArArUrUrUrUdCdT” the normalised inhibition (eCFP-eYFP dual reporter) was 70.5%. “sense rArArArGrUrUrArGrArGrUrGrGrArCrCrUrArCdTdT / antisense rGrUrArGrGrUrCrCrArCrUrCrUrArArCrUrUrUdCdC” was tested, and the normalised inhibition (eCFP-eYFP dual reporter) was 50%.

What follows are substances tested against UFC1 (assay: reporter assay of Huesken 2005). Conditions: siRNA.
Substance “sense rArUrCrArGrUrCrCrCrUrUrArUrCrCrGrGrUrAdTdT / antisense rUrArCrCrGrGrArUrArArGrGrGrArCrUrGrArUdAdT” has a normalised inhibition (eCFP-eYFP dual reporter) of 99.1%. “sense rArUrCrCrArArCrArCrArArArGrArGrArArArUdTdT / antisense rArUrUrUrCrUrCrUrUrUrGrUrGrUrUrGrGrArUdGdA” gave a normalised inhibition (eCFP-eYFP dual reporter) of 69.1%. With “sense rArUrCrUrCrArUrGrGrCrUrCrUrGrGrGrGrCrUdTdT / antisense rArGrCrCrCrCrArGrArGrCrCrArUrGrArGrArUdGdA” the normalised inhibition (eCFP-eYFP dual reporter) was 53.8%. Work on “sense rArUrGrGrArArArGrArCrArGrCrArArArGrArUdTdT / antisense rArUrCrUrUrUrGrCrUrGrUrCrUrUrUrCrCrArUdCdC” yielded a normalised inhibition (eCFP-eYFP dual reporter) of 69.9%. For “sense rArUrUrGrCrArGrUrUrCrCrUrGrArGrCrUrGrGdTdT / antisense rCrCrArGrCrUrCrArGrGrArArCrUrGrCrArArUdTdT”, the normalised inhibition (eCFP-eYFP dual reporter) was 61.6%. Substance “sense rCrArGrCrGrArCrUrGrArArGrGrArGrGrArArUdTdT / antisense rArUrUrCrCrUrCrCrUrUrCrArGrUrCrGrCrUrGdCdA” has a normalised inhibition (eCFP-eYFP dual reporter) of 100%. “sense rCrArGrUrCrCrCrUrUrArUrCrCrGrGrUrArUrGdTdT / antisense rCrArUrArCrCrGrGrArUrArArGrGrGrArCrUrGdAdT” gave a normalised inhibition (eCFP-eYFP dual reporter) of 78.8%. “sense rCrCrGrGrArCrCrCrCrGrArGrArUrCrGrUrGrAdTdT / antisense rUrCrArCrGrArUrCrUrCrGrGrGrGrUrCrCrGrGdCdG” was tested, and the normalised inhibition (eCFP-eYFP dual reporter) was 56.6%. For “sense rCrCrGrGrUrArUrGrUrGrGrArGrArArCrArArCdTdT / antisense rGrUrUrGrUrUrCrUrCrCrArCrArUrArCrCrGrGdAdT”, the normalised inhibition (eCFP-eYFP dual reporter) was 72.3%. “sense rCrCrUrGrArGrCrUrGrGrArUrGrGrArArArGrAdTdT / antisense rUrCrUrUrUrCrCrArUrCrCrArGrCrUrCrArGrGdAdA” gave a normalised inhibition (eCFP-eYFP dual reporter) of 120%. Substance “sense rCrGrArGrUrUrUrGrArCrArUrUrCrCrUrArUrCdTdT / antisense rGrArUrArGrGrArArUrGrUrCrArArArCrUrCrGdAdT” has a normalised inhibition (eCFP-eYFP dual reporter) of 95.7%. For “sense rCrGrUrCrArUrCrCrArArCrArCrArArArGrArGdTdT / antisense rCrUrCrUrUrUrGrUrGrUrUrGrGrArUrGrArCrGdCdC”, the normalised inhibition (eCFP-eYFP dual reporter) was 86.3%. Work on “sense rCrUrGrArCrGrGrArUrCrArUrUrUrCrArArArCdTdT / antisense rGrUrUrUrGrArArArUrGrArUrCrCrGrUrCrArGdGdC” yielded a normalised inhibition (eCFP-eYFP dual reporter) of 65.7%. “sense rCrUrGrArUrCrUrGrArUrUrCrArGrArArGrGrGdTdT / antisense rCrCrCrUrUrCrUrGrArArUrCrArGrArUrCrArGdGdG” was tested, and the normalised inhibition (eCFP-eYFP dual reporter) was 73.2%. In the case of “sense rCrUrGrGrArGrUrCrCrArArCrArArGrGrArArGdTdT / antisense rCrUrUrCrCrUrUrGrUrUrGrGrArCrUrCrCrArGdTdC”, the normalised inhibition (eCFP-eYFP dual reporter) is reported as 66.3%. “sense rCrUrGrGrGrUrCrCrArUrGrGrCrUrGrGrCrArGdTdT / antisense rCrUrGrCrCrArGrCrCrArUrGrGrArCrCrCrArGdCdC” showed a normalised inhibition (eCFP-eYFP dual reporter) of 60.5%. With “sense rCrUrUrArUrCrCrGrGrUrArUrGrUrGrGrArGrAdTdT / antisense rUrCrUrCrCrArCrArUrArCrCrGrGrArUrArArGdGdG” the normalised inhibition (eCFP-eYFP dual reporter) was 78.4%. Work on “sense rGrArArArUrArUrGrArGrUrUrUrGrArCrArUrCdTdT / antisense rGrArUrGrUrCrArArArCrUrCrArUrArUrUrUrCdAdG” yielded a normalised inhibition (eCFP-eYFP dual reporter) of 66.9%. Substance “sense rGrArArCrUrCrGrGrUrGrGrUrUrUrGrGrArArAdTdT / antisense rUrUrUrCrCrArArArCrCrArCrCrGrArGrUrUrCdCdT” has a normalised inhibition (eCFP-eYFP dual reporter) of 97.7%. “sense rGrArArUrGrUrGrCrCrCrArArArUrUrUrGrGrAdTdT / antisense rUrCrCrArArArUrUrUrGrGrGrCrArCrArUrUrCdCdT” gave a normalised inhibition (eCFP-eYFP dual reporter) of 67.9%. “sense rGrArCrArGrCrArArArGrArUrGrUrArCrArGrGdTdT / antisense rCrCrUrGrUrArCrArUrCrUrUrUrGrCrUrGrUrCdTdT” was tested, and the normalised inhibition (eCFP-eYFP dual reporter) was 50.1%. Work on “sense rGrArCrGrGrArUrCrArUrUrUrCrArArArCrCrUdTdT / antisense rArGrGrUrUrUrGrArArArUrGrArUrCrCrGrUrCdAdG” yielded a normalised inhibition (eCFP-eYFP dual reporter) of 123%. Substance “sense rGrArUrCrArUrUrUrCrArArArCrCrUrUrUrGrUdTdT / antisense rArCrArArArGrGrUrUrUrGrArArArUrGrArUrCdCdG” has a normalised inhibition (eCFP-eYFP dual reporter) of 98.8%. Substance “sense rGrCrArArArGrArUrGrUrArCrArGrGrGrGrUrGdTdT / antisense rCrArCrCrCrCrUrGrUrArCrArUrCrUrUrUrGrCdTdG” has a normalised inhibition (eCFP-eYFP dual reporter) of 108%. “sense rGrCrArGrUrUrCrCrUrGrArGrCrUrGrGrArUrGdTdT / antisense rCrArUrCrCrArGrCrUrCrArGrGrArArCrUrGrCdAdA” was tested, and the normalised inhibition (eCFP-eYFP dual reporter) was 80.1%. With “sense rGrCrCrArGrGrArArUrGrUrGrCrCrCrArArArUdTdT / antisense rArUrUrUrGrGrGrCrArCrArUrUrCrCrUrGrGrCdCdC” the normalised inhibition (eCFP-eYFP dual reporter) was 77.2%. “sense rGrCrCrCrCrArGrArArArUrUrGrCrArGrUrUrCdTdT / antisense rGrArArCrUrGrCrArArUrUrUrCrUrGrGrGrGrCdAdG” was tested, and the normalised inhibition (eCFP-eYFP dual reporter) was 61.7%. Substance “sense rGrCrCrUrGrArCrGrGrArUrCrArUrUrUrCrArAdTdT / antisense rUrUrGrArArArUrGrArUrCrCrGrUrCrArGrGrCdAdT” has a normalised inhibition (eCFP-eYFP dual reporter) of 117%. Work on “sense rGrCrGrArCrUrGrArArGrGrArGrGrArArUrArUdTdT / antisense rArUrArUrUrCrCrUrCrCrUrUrCrArGrUrCrGrCdTdG” yielded a normalised inhibition (eCFP-eYFP dual reporter) of 107%. “sense rGrCrUrGrArCrArArCrGrArUrUrGrGrUrUrCrCdTdT / antisense rGrGrArArCrCrArArUrCrGrUrUrGrUrCrArGrCdAdT” gave a normalised inhibition (eCFP-eYFP dual reporter) of 78%. “sense rGrCrUrGrGrCrArGrUrGrGrArArArUrCrCrCrUdTdT / antisense rArGrGrGrArUrUrUrCrCrArCrUrGrCrCrArGrCdCdA” gave a normalised inhibition (eCFP-eYFP dual reporter) of 48.5%. For “sense rGrGrArCrUrArGrCrUrCrArUrCrUrCrArUrGrGdTdT / antisense rCrCrArUrGrArGrArUrGrArGrCrUrArGrUrCrCdAdA”, the normalised inhibition (eCFP-eYFP dual reporter) was 61.7%. For “sense rGrGrArUrGrGrArArArGrArCrArGrCrArArArGdTdT / antisense rCrUrUrUrGrCrUrGrUrCrUrUrUrCrCrArUrCrCdAdG”, the normalised inhibition (eCFP-eYFP dual reporter) was 103%. Work on “sense rGrGrCrArArArArUrArUrGrCrCrUrGrArCrGrGdTdT / antisense rCrCrGrUrCrArGrGrCrArUrArUrUrUrUrGrCrCdAdC” yielded a normalised inhibition (eCFP-eYFP dual reporter) of 99.9%. Work on “sense rGrGrCrUrCrUrGrGrGrGrCrUrGrGrGrUrCrCrAdTdT / antisense rUrGrGrArCrCrCrArGrCrCrCrCrArGrArGrCrCdAdT” yielded a normalised inhibition (eCFP-eYFP dual reporter) of 69.9%. “sense rGrGrGrUrGrCrArGrCrGrArCrUrGrArArGrGrAdTdT / antisense rUrCrCrUrUrCrArGrUrCrGrCrUrGrCrArCrCrCdAdC” was tested, and the normalised inhibition (eCFP-eYFP dual reporter) was 85.9%. “sense rGrUrArUrArUrCrCrArUrGrArCrCrUrCrCrUrGdTdT / antisense rCrArGrGrArGrGrUrCrArUrGrGrArUrArUrArCdCdA” gave a normalised inhibition (eCFP-eYFP dual reporter) of 96%. “sense rGrUrGrGrArGrArArCrArArCrArArGrArArUrGdTdT / antisense rCrArUrUrCrUrUrGrUrUrGrUrUrCrUrCrCrArCdAdT” showed a normalised inhibition (eCFP-eYFP dual reporter) of 68.9%. “sense rUrArCrUrGrCrCrCrCrArGrArArArUrUrGrCrAdTdT / antisense rUrGrCrArArUrUrUrCrUrGrGrGrGrCrArGrUrAdGdT” was tested, and the normalised inhibition (eCFP-eYFP dual reporter) was 52.2%. Substance “sense rUrCrArGrUrCrCrCrUrUrArUrCrCrGrGrUrArUdTdT / antisense rArUrArCrCrGrGrArUrArArGrGrGrArCrUrGrAdTdA” has a normalised inhibition (eCFP-eYFP dual reporter) of 88.9%. Substance “sense rUrCrArUrCrCrArArCrArCrArArArGrArGrArAdTdT / antisense rUrUrCrUrCrUrUrUrGrUrGrUrUrGrGrArUrGrAdCdG” has a normalised inhibition (eCFP-eYFP dual reporter) of 93%. Work on “sense rUrGrArArArUrArUrGrArGrUrUrUrGrArCrArUdTdT / antisense rArUrGrUrCrArArArCrUrCrArUrArUrUrUrCrAdGdG” yielded a normalised inhibition (eCFP-eYFP dual reporter) of 75.3%. “sense rUrGrArCrArArCrGrArUrUrGrGrUrUrCrCrGrAdTdT / antisense rUrCrGrGrArArCrCrArArUrCrGrUrUrGrUrCrAdGdC” showed a normalised inhibition (eCFP-eYFP dual reporter) of 76.1%. Substance “sense rUrGrArCrArUrUrCrCrUrArUrCrArCrArUrArUdTdT / antisense rArUrArUrGrUrGrArUrArGrGrArArUrGrUrCrAdAdA” has a normalised inhibition (eCFP-eYFP dual reporter) of 115%. “sense rUrGrCrCrCrCrArGrArArArUrUrGrCrArGrUrUdTdT / antisense rArArCrUrGrCrArArUrUrUrCrUrGrGrGrGrCrAdGdT” gave a normalised inhibition (eCFP-eYFP dual reporter) of 44.9%. Substance “sense rUrGrGrCrArGrUrGrGrArArArUrCrCrCrUrGrAdTdT / antisense rUrCrArGrGrGrArUrUrUrCrCrArCrUrGrCrCrAdGdC” has a normalised inhibition (eCFP-eYFP dual reporter) of 71.4%. Work on “sense rUrGrGrGrUrCrCrArUrGrGrCrUrGrGrCrArGrUdTdT / antisense rArCrUrGrCrCrArGrCrCrArUrGrGrArCrCrCrAdGdC” yielded a normalised inhibition (eCFP-eYFP dual reporter) of 35.2%. Work on “sense rUrGrGrUrArUrArUrCrCrArUrGrArCrCrUrCrCdTdT / antisense rGrGrArGrGrUrCrArUrGrGrArUrArUrArCrCrAdGdC” yielded a normalised inhibition (eCFP-eYFP dual reporter) of 31.4%. Substance “sense rUrGrGrUrUrCrCrGrArCrUrGrGrArGrUrCrCrAdTdT / antisense rUrGrGrArCrUrCrCrArGrUrCrGrGrArArCrCrAdAdT” has a normalised inhibition (eCFP-eYFP dual reporter) of 71.9%. “sense rUrUrGrGrArArArArUrGrCrUrGrGrUrArUrArUdTdT / antisense rArUrArUrArCrCrArGrCrArUrUrUrUrCrCrArAdAdC” gave a normalised inhibition (eCFP-eYFP dual reporter) of 56.8%.
